Experimental data from publication PMC8512764, “New 4-Aminoproline-Based Small Molecule Cyclopeptidomimetics as Potential Modulators of α4β1 Integrin” (Molecules, 2021).
Entries after “also recorded” stand apart in the source; their conditions may differ. *1 amine or outer side, *2 acyl side, *3 side chain or, on linkers, in order; H or OH if unused. Where a SMILES comes first, the peptide text is derived from it. Bridges are numbered along the chain shown (N, C = ends). [ ]: non-standard residue; d: D form. The star is where a group is joined. ξ: configuration not given here. ξPro(4ξ-NH2) = O=C(C1CC(N[*:3])CN1[*:1])[*:2]; X1 = O=C(Cc1ccc(N[*:1])cc1)[*:2]; NH(2-Me-phenyl) = Cc1ccccc1N*; CO = O=C([*:1])[*:2]

Legend:
Jurkat cells = assay: Jurkat cell adhesion to wells coated with compound 16 (absence of VCAM-1); type: cell-based
Experimental: In a second set of experiments, the ability of compound 16 to increase cell adhesion was tested in the absence of VCAM-1. Wells were coated by passive adsorption with compound 16 or BSA (both at 10 µg/mL) as a negative control and Jurkat cell adhesion was measured (Figure 8b).
(§1) The number of adherent cells was determined as described above.

[1] = test system: allergic bronchoconstriction; set-up: method as in PMID 10072689; details: administered as an aerosol; cited from earlier work
α4β1/VCAM-1 interaction = test system: α4β1/VCAM-1 interaction; set-up: method as in PMID 10072689; details: Jurkat cell adhesion assay; read-out: IC50, inhibition of α4β1/VCAM-1 interaction; cited from earlier work
[2] = set-up: method as in PMID 31338363, PMID 26101577; details: cited from earlier work
α4β7 integrin = test system: α4β7 integrin; set-up: method as in PMID 10072689; details: cited from earlier work
α4β1 integrin [3] = molecular target: T1, α4β1 integrin (Homo sapiens, UniProt P05556+P13612); details: cited from earlier work
T1 construct: Jurkat cells endogenously express α4β1 integrin; host or cells: Jurkat E6.1 cells

[4] = test system: endothelial progenitor cells; set-up: method as in PMID 23703610; details: α4β1-dependent; cited from earlier work
α4 integrin = test system: α4 integrin; set-up: method as in PMID 30051467; details: cited from earlier work
human α4β1 integrin = test system: human α4β1 integrin; set-up: method as in PMID 30051467; details: cited from earlier work
allergic conjunctivitis = test system: allergic conjunctivitis; set-up: method as in PMID 30051467; details: cited from earlier work
α4β1 integrin [5] = molecular target: T1, α4β1 integrin; assay: Jurkat cell adhesion assay on VCAM-1-coated wells; type: cell-based
Experimental: To investigate the ability of the newly synthesized cyclopeptidomimetics 12–18 to recognize and bind α4β1 integrin, cell adhesion assays were performed on VCAM-1. The compounds were evaluated for their ability to interfere with α4β1 integrin-mediated cell adhesion by using Jurkat cells, which are known to constitutively express this integrin [46, 48, 49, 50, 51].
Jurkat E6.1 cells were purchased from American Type Culture Collection (ATCC, Rockville, MD, USA) and were routinely cultured in RPMI-1640 (LifeTechnologies, Milan, Italy) supplemented with 10% FBS (fetal bovine serum, Life Technologies) and 2 mM glutamine. Cells were kept at 37 °C under 5% CO2 humidified atmosphere. Jurkat cells are a widely used cell model to study potential agonist or antagonist ligands able to modulate integrin-mediated cell adhesion. Jurkat cells endogenously express α4β1 integrin [13].
The assays were performed as previously described. In brief, black 96 well plates were coated with VCAM-1 (2 μg/mL) overnight at 4 °C; then, non-specific hydrophobic binding sites were blocked with 1% BSA (bovine serum albumin, Sigma-Aldrich) in HBSS (Life Technologies) for 30 min at 37 °C. Jurkat cells were labelled with CellTracker green CMFDA (12.5 μM, Life Technolgies) and pre-incubated with various concentration (10^−4–10^−10 M) of each new cyclopeptidomimetic or with the vehicle (DMSO) for 30 min at 37 °C. Afterwards, Jurkat cells were plated on VCAM-1-coated wells and incubated for 30 min at 37 °C. Then, wells were washed three times with 1% BSA in HBSS and Jurkat cells were lysed with 0.5% Triton X-100 in PBS for 30 min at 4 °C. Green fluorescence (Ex485 nm/Em 535 nm) was measured in an EnSpire Multimode Plate Reader (PerkinElmer, Waltham, MA, USA). Experiments were performed in quadruplicate and repeated at least three times. The number of adherent cells was determined by comparison with a standard curve made with a known concentration of labelled Jurkat cells. Data analysis and IC50/EC50 values were calculated using GraphPad Prism 6.0 (GraphPad Software, San Diego, CA, USA).
as §1

α4β1–positive cells = test system: α4β1–positive cells; set-up: method as in PMID 16767086; details: cited from earlier work
α4β1 receptor = molecular target: α4β1 receptor; set-up: method as in PMID 16767086; details: Jurkat cell assay; read-out: IC50, affinity toward α4β1 receptor; cited from earlier work

T1 sequence (P13612 34-1032): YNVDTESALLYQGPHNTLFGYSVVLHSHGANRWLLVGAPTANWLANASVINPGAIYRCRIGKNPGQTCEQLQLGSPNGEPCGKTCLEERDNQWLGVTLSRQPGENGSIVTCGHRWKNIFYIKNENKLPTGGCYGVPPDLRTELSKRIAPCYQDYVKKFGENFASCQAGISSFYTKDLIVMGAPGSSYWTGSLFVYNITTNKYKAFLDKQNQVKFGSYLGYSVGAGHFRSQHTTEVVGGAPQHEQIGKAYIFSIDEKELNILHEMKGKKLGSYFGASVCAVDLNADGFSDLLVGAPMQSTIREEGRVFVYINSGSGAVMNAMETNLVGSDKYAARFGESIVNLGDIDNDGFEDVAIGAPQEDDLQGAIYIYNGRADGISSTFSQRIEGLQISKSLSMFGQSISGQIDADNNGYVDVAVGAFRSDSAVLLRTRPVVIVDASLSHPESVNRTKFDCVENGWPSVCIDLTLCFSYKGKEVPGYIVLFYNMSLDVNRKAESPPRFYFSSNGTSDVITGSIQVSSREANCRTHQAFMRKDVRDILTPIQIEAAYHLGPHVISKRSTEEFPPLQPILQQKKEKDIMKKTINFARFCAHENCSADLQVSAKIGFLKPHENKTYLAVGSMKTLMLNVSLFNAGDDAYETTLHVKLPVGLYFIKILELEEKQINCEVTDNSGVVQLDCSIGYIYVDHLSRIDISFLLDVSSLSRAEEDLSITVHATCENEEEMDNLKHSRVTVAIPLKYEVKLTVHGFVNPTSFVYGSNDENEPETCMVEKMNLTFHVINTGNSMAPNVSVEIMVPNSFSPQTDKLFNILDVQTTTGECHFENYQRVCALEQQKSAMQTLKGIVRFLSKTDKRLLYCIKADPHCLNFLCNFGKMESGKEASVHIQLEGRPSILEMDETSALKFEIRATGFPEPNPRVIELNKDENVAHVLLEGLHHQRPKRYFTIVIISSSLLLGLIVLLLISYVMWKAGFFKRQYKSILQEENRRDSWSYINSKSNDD
T1 sequence (P05556 21-798): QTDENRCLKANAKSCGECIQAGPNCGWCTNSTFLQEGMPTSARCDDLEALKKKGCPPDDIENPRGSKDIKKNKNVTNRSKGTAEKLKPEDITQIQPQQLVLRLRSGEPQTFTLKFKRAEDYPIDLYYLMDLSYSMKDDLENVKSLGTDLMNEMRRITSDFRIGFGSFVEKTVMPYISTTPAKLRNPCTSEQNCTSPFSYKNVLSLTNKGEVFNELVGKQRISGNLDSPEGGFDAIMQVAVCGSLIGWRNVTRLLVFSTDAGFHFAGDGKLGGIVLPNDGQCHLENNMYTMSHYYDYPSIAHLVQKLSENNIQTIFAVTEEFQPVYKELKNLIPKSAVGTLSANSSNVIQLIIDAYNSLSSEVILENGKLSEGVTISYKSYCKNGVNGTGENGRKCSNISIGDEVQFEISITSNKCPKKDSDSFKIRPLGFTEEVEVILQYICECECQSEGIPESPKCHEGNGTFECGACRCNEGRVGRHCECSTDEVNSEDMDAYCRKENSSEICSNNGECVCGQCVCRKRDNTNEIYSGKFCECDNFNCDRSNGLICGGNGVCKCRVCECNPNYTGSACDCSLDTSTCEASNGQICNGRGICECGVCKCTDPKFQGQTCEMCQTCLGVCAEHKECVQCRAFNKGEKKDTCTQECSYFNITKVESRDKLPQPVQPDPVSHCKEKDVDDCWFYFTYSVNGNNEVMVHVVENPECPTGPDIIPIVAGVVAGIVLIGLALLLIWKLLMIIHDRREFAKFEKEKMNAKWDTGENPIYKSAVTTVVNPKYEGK

Compound: Cc1ccccc1NC(=O)Nc1ccc(CC(=O)N[C@@H](CC(C)C)C(=O)N[C@@H](CC(=O)O)C(=O)N[C@H](C(=O)N2CCC[C@H]2C(=O)O)C(C)C)cc1 [BIO1211, MPUPA-Leu-Asp-Val-Pro] ({NH(2-Me-phenyl)-CO}-[X1]LDVP-OH)
- Effect of BIO1211 on cell adhesion induced by coated compound 16 (Jurkat cells; BIO1211 10 nM–100 mM, wells coated with compound 16 10 μg/mL): not able to reduce the increment of cell adhesion induced by compound 16
- Efficacy in sheep model of allergic bronchoconstriction [1]: prophylactic efficacy
- IC50 (α4β1/VCAM-1 interaction): 4 nM
- Enzymatic stability [2]: a certain enzymatic instability
- IC50 (α4β7 integrin): 2000 nM

Compound: Cc1ccccc1NC(=O)Nc1ccc(CNC(=O)C2=CCN(C(=O)CC(=O)O)[C@@H]2C(C)C)cc1 [Compound 11a]
- IC50, inhibition of α4β1/VCAM interaction (α4β1 integrin [3]): in the nanomolar range
- Enzymatic stability [2]: superior enzymatic stability respect to cyclic peptides 8–10

Compound: CCCC[C@@H](COC(=O)N(Cc1cccs1)Cc1cccs1)NC(=O)N[C@@H](CC(=O)OC)c1ccc2c(c1)OCO2 [THI0019]
- Effect on endothelial progenitor cells in vitro [4]: enhanced the rolling, spreading, adhesion, and migration

Compound: Cc1ccccc1NC(=O)Nc1ccc(CC(=O)N2CC[C@H](C(=O)NCC(=O)O)C2)cc1 [DS-70]
- Antagonist activity of α4–mediated cell adhesion (α4 integrin): potent antagonist activity
- Binding affinity for human α4β1 integrin (human α4β1 integrin): high binding affinity
- Outcome in guinea pig model of allergic conjunctivitis (allergic conjunctivitis): successfully tested

Compound: Cc1ccccc1NC(=O)Nc1ccc(CC(=O)N2CC3CC2C(=O)NC(C(C)C)C(=O)NC(CC(=O)O)C(=O)NC(CC(C)C)C(=O)N3)cc1 (stereo not drawn) [Compound 16, c[(MPUPA)Amp-Val-Asp-Leu]] ({NH(2-Me-phenyl)-CO}-[X1][ξPro(4ξ-NH2)]VDL; lactam 2-C; configuration not given here)
- Jurkat cell adhesion to compound-coated wells (Jurkat cells; wells coated with 10 μg/mL, absence of VCAM-1, vs BSA-coated wells): able to induce Jurkat cell adhesion; also recorded: significant adhesion of Jurkat cells
- Behaviour in α4β1 integrin-mediated cell adhesion (agonist/antagonist) (α4β1 integrin [5]; Jurkat cell adhesion to VCAM-1 (2 μg/mL)): agonist
- EC50 (α4β1 integrin [5]; Jurkat cell adhesion to VCAM-1 (2 μg/mL), means ± SD, n = 3, read-out: EC50/IC50 (EC50 for compounds enhancing cell adhesion)): 370 ± 90 nM
- Effect of compound 16 on the reduced cell adhesion induced by BIO1211 (α4β1 integrin [5]; cells pre-incubated with BIO1211 (1 μM) 30 min, then compound 16 (100 μM)): not able to modify the reduction in adhesion induced by BIO1211; also recorded: not able to modify the reduced cell adhesion induced by BIO1211
- Effect on Jurkat cell adhesion to VCAM-1 (α4β1 integrin [5]; compound 16 100 μM): increasing the adhesion of Jurkat cells to VCAM-1

Compound: Cc1ccccc1NC(=O)Nc1ccc(CC(=O)N[C@@H](CCCCNC(=O)/C=C/c2cccnc2)C(=O)N[C@@H](CCCC(=O)O)C(=O)NC2(C(N)=O)CCCCC2)cc1 [LLP2A]
- Effect on cell proliferation and survival of α4β1–positive cells (α4β1–positive cells): without any effect
- IC50 (α4β1 receptor): 0.002 nM

Compound: Cc1ccccc1NC(=O)Nc1ccc(CNC(=O)C2=CCN(C(=O)CC(=O)O)[C@H]2C(C)C)cc1 [Compound 11b]
- Inhibitory potency towards α4β1 integrin (α4β1 integrin [3]): considerably less active
